Assay results taken from patent publication US12723063B2, “GIPR-agonist compounds” (Eli Lilly and Company, priority 2019, dated 2026).
*1 amine or outer side, *2 acyl side, *3 side chain or, on linkers, in order; H or OH if unused. Where a SMILES comes first, the peptide text is derived from it. Side-chain parts run from the residue outwards. [ ]: non-standard residue; d: D form. The star is where a group is joined. C20 diacid = O=C(O)CCCCCCCCCCCCCCCCCCC(=O)*; γGlu = O=C(O)[C@H](CCC(=O)[*:2])N[*:1]; αMeF = C[C@](N)(Cc1ccccc1)C(=O)O; 4Pal = N[C@@H](Cc1ccncc1)C(=O)O; αMeL = CC(C)C[C@](C)(N)C(=O)O; AEEA = NCCOCCOCC(=O)O; Aib = CC(C)(N)C(=O)O

Tests used:
[1] = target: T1, human GLP-1R (Homo sapiens, UniProt P43220); assay: [125I]-GLP-1 binding, SPA with WGA beads, 0.1% bacitracin; conditions: geometric mean, read-out: hGLP1R Ki
T1 construct: expressed in transfected cells; crude membranes
T1 sequence (P43220 24-463): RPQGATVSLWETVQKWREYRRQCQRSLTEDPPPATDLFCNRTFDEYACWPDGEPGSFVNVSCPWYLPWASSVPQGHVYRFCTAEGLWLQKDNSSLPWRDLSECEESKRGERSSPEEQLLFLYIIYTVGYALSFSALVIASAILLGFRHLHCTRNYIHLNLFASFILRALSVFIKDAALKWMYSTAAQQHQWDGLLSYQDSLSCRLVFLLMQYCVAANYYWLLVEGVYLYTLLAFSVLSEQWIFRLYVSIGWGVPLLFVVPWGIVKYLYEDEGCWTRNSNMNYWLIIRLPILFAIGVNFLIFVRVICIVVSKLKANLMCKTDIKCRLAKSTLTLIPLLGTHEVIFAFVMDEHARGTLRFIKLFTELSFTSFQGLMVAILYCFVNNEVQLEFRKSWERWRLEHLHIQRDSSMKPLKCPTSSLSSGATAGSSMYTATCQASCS
Outline: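 Binding buffer was 25 mM HEPES pH 7.4 with 2.5 mM CaCl2, 1 mM MgCl2, 0.1% (w/v) bacitracin, 0.003% Tween-20 and EDTA-free protease inhibitors. Four-parameter regression gave IC50, converted to Ki (geometric mean, SEM, n independent days).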

[2] = target: T2, human GcgR (Homo sapiens, UniProt P47871); assay: [125I]-Glucagon binding, SPA with WGA beads, 0.1% bacitracin; conditions: geometric mean, read-out: hGcgR Ki
T2 construct: expressed in transfected cells; crude membranes
T2 sequence (P47871 26-477): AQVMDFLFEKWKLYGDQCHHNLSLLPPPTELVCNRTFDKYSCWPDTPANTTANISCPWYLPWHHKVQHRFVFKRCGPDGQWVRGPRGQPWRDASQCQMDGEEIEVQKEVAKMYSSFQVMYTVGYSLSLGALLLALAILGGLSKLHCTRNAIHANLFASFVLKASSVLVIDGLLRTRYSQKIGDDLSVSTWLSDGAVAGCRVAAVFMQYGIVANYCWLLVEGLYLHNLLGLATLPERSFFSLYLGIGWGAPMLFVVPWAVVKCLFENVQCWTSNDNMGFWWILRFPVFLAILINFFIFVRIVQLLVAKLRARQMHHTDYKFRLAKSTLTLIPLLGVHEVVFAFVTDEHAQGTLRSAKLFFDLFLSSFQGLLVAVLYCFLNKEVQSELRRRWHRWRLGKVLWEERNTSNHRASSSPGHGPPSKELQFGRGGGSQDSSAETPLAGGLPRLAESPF
Outline: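 SPA competition binding with WGA beads on crude membranes from HEK293 cells stably expressing hGcgR. Buffer: 25 mM HEPES pH 7.4, 2.5 mM CaCl2, 1 mM MgCl2, 0.1% bacitracin, 0.003% Tween-20; 10-point 3-fold dilutions, NSB with 1 μM Gcg.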

[3] = target: T3, human GLP-1 receptor (GLP-1R) (Homo sapiens, UniProt P43220); assay: cAMP functional assay (HTRF) in HEK293 cells in presence of 0.1% casein; assay type: cell-based; conditions: HEK293 cells expressing human GLP-1R, geometric mean, read-out: hGLP1R cAMP Rel EC50 nM (SEM, n)
T3 construct: expressed in transfected cells; host or cells: HEK293
T3 sequence (P43220 24-463): as the sequence (P43220 24-463) above

SMILES: CC[C@H](C)[C@H](NC(=O)[C@H](CO)NC(=O)[C@H](Cc1ccc(O)cc1)NC(=O)[C@H](CC(=O)O)NC(=O)[C@H](CO)NC(=O)[C@@H](NC(=O)[C@](C)(Cc1ccccc1)NC(=O)[C@@H](NC(=O)CNC(=O)[C@H](CCC(=O)O)NC(=O)C(C)(C)NC(=O)[C@@H](N)Cc1ccc(O)cc1)[C@@H](C)O)[C@@H](C)CC)C(=O)N[C@@](C)(CC(C)C)C(=O)N[C@@H](CC(C)C)C(=O)N[C@@H](CC(=O)O)C(=O)N[C@@H](CCCCN)C(=O)N[C@@H](CCCCNC(=O)COCCOCCNC(=O)COCCOCCNC(=O)CC[C@H](NC(=O)CCCCCCCCCCCCCCCCCCC(=O)O)C(=O)O)C(=O)N[C@@H](Cc1c[nH]cn1)C(=O)N[C@@H](CCC(N)=O)C(=O)NC(C)(C)C(=O)N[C@@H](CCC(=O)O)C(=O)N[C@@H](Cc1ccccc1)C(=O)N[C@H](C(=O)N[C@@H](CCC(=O)O)C(=O)N[C@@H](Cc1ccncc1)C(=O)N[C@@H](CC(C)C)C(=O)N[C@@H](CC(C)C)C(=O)N[C@@H](C)C(=O)N[C@@H](CCC(N)=O)C(=O)NCC(=O)N1CCC[C@H]1C(=O)N[C@@H](CO)C(=O)N[C@@H](CO)C(=O)NCC(=O)N[C@@H](C)C(=O)N1CCC[C@H]1C(=O)N1CCC[C@H]1C(=O)N1CCC[C@H]1C(=O)N[C@@H](CO)C(N)=O)C(C)C [Example 60] (H-Y[Aib]EGT[αMeF]ISDYSI[αMeL]LDKK([AEEA-AEEA-γGlu-C20 diacid])HQ[Aib]EFVE[4Pal]LLAQGPSSGAPPPS-NH2)
- Ki [1]: 51.4 nM
- Ki [2]: 26.2 nM
- EC50 [3]: 71 nM

SMILES: CC[C@H](C)[C@H](NC(=O)[C@H](CO)NC(=O)[C@H](Cc1ccc(O)cc1)NC(=O)[C@H](CC(=O)O)NC(=O)[C@H](CO)NC(=O)[C@@H](NC(=O)[C@](C)(Cc1ccccc1)NC(=O)[C@@H](NC(=O)CNC(=O)[C@H](CCC(=O)O)NC(=O)C(C)(C)NC(=O)[C@@H](N)Cc1ccc(O)cc1)[C@@H](C)O)[C@@H](C)CC)C(=O)N[C@@](C)(CC(C)C)C(=O)N[C@@H](CC(C)C)C(=O)N[C@@H](CC(=O)O)C(=O)N[C@@H](CCCCN)C(=O)N[C@@H](CCCCNC(=O)COCCOCCNC(=O)COCCOCCNC(=O)CC[C@H](NC(=O)CCCCCCCCCCCCCCCCCCC(=O)O)C(=O)O)C(=O)N[C@@H](Cc1c[nH]cn1)C(=O)N[C@@H](CCC(N)=O)C(=O)NC(C)(C)C(=O)N[C@@H](CCC(=O)O)C(=O)N[C@@H](Cc1ccccc1)C(=O)N[C@H](C(=O)N[C@@H](CCC(=O)O)C(=O)N[C@@H](Cc1ccncc1)C(=O)N[C@@H](CC(C)C)C(=O)N[C@@H](CC(C)C)C(=O)N[C@@H](C)C(=O)N[C@H](C(=O)NCC(=O)N1CCC[C@H]1C(=O)N[C@@H](CO)C(=O)N[C@@H](CO)C(=O)NCC(=O)N[C@@H](C)C(=O)N1CCC[C@H]1C(=O)N1CCC[C@H]1C(=O)N1CCC[C@H]1C(=O)N[C@@H](CO)C(N)=O)[C@@H](C)O)C(C)C [Example 61] (H-Y[Aib]EGT[αMeF]ISDYSI[αMeL]LDKK([AEEA-AEEA-γGlu-C20 diacid])HQ[Aib]EFVE[4Pal]LLATGPSSGAPPPS-NH2)
- Ki [1]: 135 nM
- Ki [2]: 80.4 nM
- EC50 [3]: 192 nM

SMILES: CC[C@H](C)[C@H](NC(=O)[C@H](CO)NC(=O)[C@H](Cc1ccc(O)cc1)NC(=O)[C@H](CC(=O)O)NC(=O)[C@H](CO)NC(=O)[C@@H](NC(=O)[C@](C)(Cc1ccccc1)NC(=O)[C@@H](NC(=O)CNC(=O)[C@H](CCC(=O)O)NC(=O)C(C)(C)NC(=O)[C@@H](N)Cc1ccc(O)cc1)[C@@H](C)O)[C@@H](C)CC)C(=O)N[C@@](C)(CC(C)C)C(=O)N[C@@H](CC(C)C)C(=O)N[C@@H](CC(=O)O)C(=O)N[C@@H](CCCCN)C(=O)N[C@@H](CCCCNC(=O)COCCOCCNC(=O)COCCOCCNC(=O)CC[C@H](NC(=O)CCCCCCCCCCCCCCCCCCC(=O)O)C(=O)O)C(=O)N[C@@H](Cc1c[nH]cn1)C(=O)N[C@@H](CCC(N)=O)C(=O)NC(C)(C)C(=O)N[C@@H](CCC(=O)O)C(=O)N[C@@H](Cc1ccccc1)C(=O)N[C@H](C(=O)N[C@@H](CCC(=O)O)C(=O)N[C@@H](Cc1ccncc1)C(=O)N[C@@H](CC(C)C)C(=O)N[C@@H](CC(C)C)C(=O)N[C@@H](C)C(=O)N[C@@H](C)C(=O)NCC(=O)N1CCC[C@H]1C(=O)N[C@@H](CO)C(=O)N[C@@H](CO)C(=O)NCC(=O)N[C@@H](C)C(=O)N1CCC[C@H]1C(=O)N1CCC[C@H]1C(=O)N1CCC[C@H]1C(=O)N[C@@H](CO)C(N)=O)C(C)C [Example 62] (H-Y[Aib]EGT[αMeF]ISDYSI[αMeL]LDKK([AEEA-AEEA-γGlu-C20 diacid])HQ[Aib]EFVE[4Pal]LLAAGPSSGAPPPS-NH2)
- Ki [1]: 47.6 nM
- Ki [2]: 31.3 nM
- EC50 [3]: 58.2 nM

SMILES: CC[C@H](C)[C@H](NC(=O)[C@H](Cc1ccccc1)NC(=O)[C@@H](NC(=O)CNC(=O)[C@H](CCC(=O)O)NC(=O)C(C)(C)NC(=O)[C@@H](N)Cc1ccc(O)cc1)[C@@H](C)O)C(=O)N[C@@H](CO)C(=O)N[C@@H](CC(=O)O)C(=O)N[C@@H](Cc1ccc(O)cc1)C(=O)N[C@@H](CO)C(=O)N[C@H](C(=O)N[C@@](C)(CC(C)C)C(=O)N[C@@H](CC(C)C)C(=O)N[C@@H](CC(=O)O)C(=O)N[C@@H](CCCCN)C(=O)N[C@@H](CCCCNC(=O)COCCOCCNC(=O)COCCOCCNC(=O)CC[C@H](NC(=O)CCCCCCCCCCCCCCCCCCC(=O)O)C(=O)O)C(=O)N[C@@H](Cc1c[nH]cn1)C(=O)N[C@@H](CCC(N)=O)C(=O)NC(C)(C)C(=O)N[C@@H](CCC(=O)O)C(=O)N[C@@H](Cc1ccccc1)C(=O)N[C@H](C(=O)N[C@@H](CCC(=O)O)C(=O)N[C@@H](Cc1ccc(O)cc1)C(=O)N[C@@H](CC(C)C)C(=O)N[C@@H](CC(C)C)C(=O)N[C@@H](CCC(=O)O)C(=O)N[C@@H](CCC(N)=O)C(=O)NCC(=O)N1CCC[C@H]1C(=O)N[C@@H](CO)C(=O)N[C@@H](CO)C(=O)NCC(=O)N[C@@H](C)C(=O)N1CCC[C@H]1C(=O)N1CCC[C@H]1C(=O)N1CCC[C@H]1C(=O)N[C@@H](CO)C(N)=O)C(C)C)[C@@H](C)CC [Example 63] (H-Y[Aib]EGTFISDYSI[αMeL]LDKK([AEEA-AEEA-γGlu-C20 diacid])HQ[Aib]EFVEYLLEQGPSSGAPPPS-NH2)
- Ki [1]: 327 nM
- Ki [2]: 185 nM
- EC50 [3]: > 5000 nM

SMILES: CC[C@H](C)[C@H](NC(=O)[C@H](Cc1ccccc1)NC(=O)[C@@H](NC(=O)CNC(=O)[C@H](CCC(=O)O)NC(=O)C(C)(C)NC(=O)[C@@H](N)Cc1ccc(O)cc1)[C@@H](C)O)C(=O)N[C@@H](CO)C(=O)N[C@@H](CC(=O)O)C(=O)N[C@@H](Cc1ccc(O)cc1)C(=O)N[C@@H](CO)C(=O)N[C@H](C(=O)N[C@@](C)(CC(C)C)C(=O)N[C@@H](CC(C)C)C(=O)N[C@@H](CC(=O)O)C(=O)N[C@@H](CCCCN)C(=O)N[C@@H](CCCCNC(=O)COCCOCCNC(=O)COCCOCCNC(=O)CC[C@H](NC(=O)CCCCCCCCCCCCCCCCCCC(=O)O)C(=O)O)C(=O)N[C@@H](Cc1c[nH]cn1)C(=O)N[C@@H](CCC(N)=O)C(=O)NC(C)(C)C(=O)N[C@@H](CCC(=O)O)C(=O)N[C@@H](Cc1ccccc1)C(=O)N[C@H](C(=O)N[C@@H](CCC(=O)O)C(=O)N[C@@H](Cc1ccc(O)cc1)C(=O)N[C@@H](CC(C)C)C(=O)N[C@@H](CC(C)C)C(=O)N[C@@H](CCC(=O)O)C(=O)N[C@H](C(=O)NCC(=O)N1CCC[C@H]1C(=O)N[C@@H](CO)C(=O)N[C@@H](CO)C(=O)NCC(=O)N[C@@H](C)C(=O)N1CCC[C@H]1C(=O)N1CCC[C@H]1C(=O)N1CCC[C@H]1C(=O)N[C@@H](CO)C(N)=O)[C@@H](C)O)C(C)C)[C@@H](C)CC [Example 64] (H-Y[Aib]EGTFISDYSI[αMeL]LDKK([AEEA-AEEA-γGlu-C20 diacid])HQ[Aib]EFVEYLLETGPSSGAPPPS-NH2)
- Ki [1]: 477 nM
- Ki [2]: 196 nM
- EC50 [3]: > 5000 nM
